Test results published in US7964595B2, “Thiophenyl prostaglandin derivatives for treating glaucoma and ocular hypertension” (Allergan, Inc., priority 2008, dated 2011).

System: lashes and adjacent hairs of patients
Test: Clinical observation of eyelash/hair growth in glaucoma patients treated in one eye
Assay type: in vivo
Conditions: glaucoma patients treated in one eye only
From the text: In the course of treating patients having glaucoma, treatment may only be appropriate in one eye. […] The lash appearance on the lids of the treated eyes would have appeared quite attractive if it represented a bilateral phenomenon. As a result of its asymmetric nature, the long lashes on one side could be construed as disturbing from a cosmetic standpoint. A systemic examination was preformed as a result of the asymmetric phenomenon. It soon became apparent that this altered appearance was not an isolated finding. […] Definite differences could be identified to varying degrees in the lashes and adjacent hairs of all patients who were taking the drug on a unilateral basis for longer than 6 months.
The changes in the lashes were apparent on gross inspection in several patients once attention was focused on the issue. In those with light colored hair and lashes, the differences were only seen easily with the aid of the high magnification and lighting capabilities of the slit lamp biomicroscope. In the course of glaucoma follow-up examination, attention is generally immediately focused on the eye itself. As a result of the high power magnification needed only one eye is seen at a time and the eye is seen at a high enough power that the lashes are not in focus. […]

CCNC(=O)CCC/C=C\C[C@@H]1[C@@H](/C=C/[C@@H](O)CCc2ccccc2)[C@H](O)C[C@@H]1O [bimatoprost]
lash appearance in treated eye versus non-treated eye: longer, thicker, and fuller
